In general, IC50 refers to the concentration at which inhibition is half-maximal.

Data set [1] addresses T1, CYP1A2 (Homo sapiens, UniProt P05177).
T1 construct: purchased Promega
T1 sequence (P05177 1-516): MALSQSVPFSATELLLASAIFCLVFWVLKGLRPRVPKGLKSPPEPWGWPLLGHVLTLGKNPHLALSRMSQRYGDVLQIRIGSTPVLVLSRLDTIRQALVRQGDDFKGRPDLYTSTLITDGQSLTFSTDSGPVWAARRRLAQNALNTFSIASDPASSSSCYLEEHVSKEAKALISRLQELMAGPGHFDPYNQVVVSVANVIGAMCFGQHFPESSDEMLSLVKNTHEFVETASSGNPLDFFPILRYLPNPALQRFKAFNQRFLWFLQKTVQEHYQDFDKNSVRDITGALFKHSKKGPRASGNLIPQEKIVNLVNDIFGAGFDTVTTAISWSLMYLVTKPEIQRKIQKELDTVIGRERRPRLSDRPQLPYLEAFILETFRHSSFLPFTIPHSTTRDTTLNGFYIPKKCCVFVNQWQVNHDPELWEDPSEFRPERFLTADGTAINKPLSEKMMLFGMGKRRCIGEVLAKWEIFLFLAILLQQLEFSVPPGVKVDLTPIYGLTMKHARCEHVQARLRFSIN
The data set is described as follows: P450-Glo CYP screening kit, CYP1A2 inhibition. The format is in vitro ADME. Conditions: luminescence, read-out: IC50 1A2. From the text:
(§1) P450-Glo™ CYP Screening Kits for CYP1A2, CYP3A4 and CYP2C19 were purchased from Promega. […] Luminescence was quantified using a Victor 3 spectrophotometer (PerkinElmer).

The target of data set [2] is T2, CYP3A4 (Homo sapiens, UniProt P08684).
T2 construct: purchased Promega
The data set is described as follows: P450-Glo CYP screening kit, CYP3A4 inhibition. The data set is classed as in vitro ADME. The conditions noted are these: luminescence, read-out: IC50 3A4.
Description: as §1

Data set [3] in a line: Metabolism in SD rats: distribution of metabolites in urine. The data set is classed as in vivo. Conditions: male SD rats, 50 mg/kg oral, five consecutive days, HPLC. The protocol:
Each test compound was dissolved in 30% PEG400 and administered orally to male SD rats by gavages at the dose level of 50 mg/kg (when using co-crystals, the weight calculation was based on free drug) for five consecutive days. Control rats were given 30% PEG400 only. All rats were housed in metabolic cages individually. Food and water were supplied ad libitum. Clinical observations (with attention to diarrhea symptoms) were performed twice daily. Food and water consumption were determined daily. Urine was collected pre-determined intervals: pre-dose, 0-4 hours, 4-8 hours, and 8-24 hours post-dose. Metabolites were analyzed and identified by LC/MS. The structures of the metabolites were confirmed by re-synthesis or isolation from the urine by preparative HPLC and NMR analysis. On day 6, all animals were sacrificed and gross necropsy was performed. The urine from two rats for each test compound was collected and pooled. The samples were diluted (1 mL urine in 4 mL of methanol) and analyzed by LC-MS: Waters 2695 Separations Module equipped with a Waters 2996 Photodiode Array Detector and a Waters Micromass ZQ Detector; Waters XTerra C18 3.5 μm, 20 mm×2.1 mm column, 1.0 mL/min, detection at 190-400 nm; 1.7 min gradient 10-50% A, followed by 1.8 min gradient 50-95% A, hold 1 min at 95% A; solvent A: 100% acetonitrile+0.045% formic acid; solvent B: Milli-Q water+0.1% formic acid. The urine samples were analyzed from 0-4 hours, 4-8 hours, 8-24 hours and 0-24 hours after administration. The ratio of metabolites was highly consistent within each time for each rat. The metabolites were identified by mass then re-synthesized to confirm their identity and the relative distribution was assayed using HPLC. […] See also FIGS. 1, 2A-2C, 3A-3D, and 4A-4C.

For data set [4], the target named is T3, CYP2C19 (Homo sapiens, UniProt P33261).
T3 construct: purchased Promega
The data set is described as follows: P450-Glo CYP screening kit, CYP2C19 inhibition. The format is in vitro ADME. Conditions: luminescence, read-out: IC50 2C19.
Description: as §1

The target of data set [5] is T4, human SGLT1 (Homo sapiens, UniProt P13866).
T4 sequence (P13866 1-664): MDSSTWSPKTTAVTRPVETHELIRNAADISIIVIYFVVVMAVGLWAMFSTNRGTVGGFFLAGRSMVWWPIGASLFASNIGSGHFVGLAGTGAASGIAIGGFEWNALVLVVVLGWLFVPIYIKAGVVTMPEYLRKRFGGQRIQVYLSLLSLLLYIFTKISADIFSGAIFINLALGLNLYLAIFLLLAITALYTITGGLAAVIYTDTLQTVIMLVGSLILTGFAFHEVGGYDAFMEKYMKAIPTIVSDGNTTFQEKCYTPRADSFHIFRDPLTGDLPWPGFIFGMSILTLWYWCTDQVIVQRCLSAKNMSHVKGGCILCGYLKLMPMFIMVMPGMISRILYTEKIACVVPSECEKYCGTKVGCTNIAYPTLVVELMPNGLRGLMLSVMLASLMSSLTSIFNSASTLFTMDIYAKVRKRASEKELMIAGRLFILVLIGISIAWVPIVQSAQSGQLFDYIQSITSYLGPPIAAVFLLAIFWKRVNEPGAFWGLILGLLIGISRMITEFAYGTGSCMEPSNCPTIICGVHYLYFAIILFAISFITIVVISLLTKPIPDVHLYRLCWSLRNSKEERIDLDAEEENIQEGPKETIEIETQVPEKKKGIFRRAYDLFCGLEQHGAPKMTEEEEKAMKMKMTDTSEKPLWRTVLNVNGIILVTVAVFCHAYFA
Conditions: read-out: SGLT1 IC50; COS-7 cells expressing human SGLT1; 25% human serum; 2 hours.
Description: Full-length human SGLT1 cDNA in the pDream2.1 expression vector was obtained from GenScript Corporation and propagated in Escherichia coli strain DH5α using Luria-Bertani (LB) medium containing ampicillin. Plasmid DNA was isolated using the QIAGEN Plasmid Midi Kit (QIAGEN Inc.). […] Transfected cells were stored in DMEM containing 10% dimethyl sulfoxide (DMSO) at −80° C.
Cells expressing SGLT1 or SGLT2 were seeded on 96-well ScintiPlate scintillating plates (PerkinElmer, Inc.) in DMEM containing 10% FBS (1×10^5 cells per well in 1001 medium) incubated at 37° C. under 5% CO2 for 48 hours prior to the assay. […] Cells were washed twice with 150 μl of wash buffer (137 mM N-methylglucamine, 10 mM Tris/Hepes, pH 7.2) and methyl-α-D-[U-^14C]glucopyranoside uptake was quantified using a TopCount scintillation counter (PerkinElmer, Inc.). Sodium-dependent glucopyranoside uptake was measured by subtracting the values obtained with sodium-free buffer from those obtained using sodium buffer (average of triplicate determinations). The IC50 for SGLT2 and SGLT1 were determined, and the selectivity for SGLT2 inhibition was calculated by dividing the SGLT1 IC50 by the SGLT2 IC50.

Data set [6] relates to beagle dogs. Put plainly: Urinary glucose excretion in beagle dogs. The format is in vivo. The conditions noted are these: separate experiment (Table 4A). Here is the method:
Each test compound was dissolved in 10% PEG400 and administered orally to overnight-fasted beagle dogs by gavage at the dose level of 0.03 mg/kg. Control dogs were given 10% PEG400 only. One hour post dosing, glucose solution (2 g/kg, 5 mL/kg) was administered by oral gavage. Urine was collected within metabolic cages from 0 to 8 hours, and 8 to 24 hours post-dosing for urine volume and glucose measurement. Food was removed 16 hours before dosing and then provided 3 hours after dosing. Water was supplied ad libitum. The concentration of urinary glucose was determined at 8 hours and 24 hours post-dose using a biochemistry analyzer.

The subject of data set [7] is SD rats. Put plainly: Urinary glucose excretion in SD rats. The format is in vivo. Conditions: 1 mg/kg oral. The protocol:
Each test compound was dissolved in 30% PEG400 and administered orally to overnight-fasted SD rats by gavage at the dose level of 1 mg/kg. Control rats were given 30% PEG400 only. One hour post dosing, glucose solution (2 g/kg, 10 mL/kg) was administered by oral gavage. Urine was collected within metabolic cages from 0 to 4 hours, and 4 to 24 hours post-dosing for urine volume and glucose measurement. Food was removed 16 hours before dosing and then provided 4 hours after dosing. Water was supplied ad libitum. The concentration of urinary glucose was determined at 4 hours and 24 hours post-dose using a biochemistry analyzer. Results were recorded for the periods 0-4 hours, 4-24 hours and 0-24 hours, and expressed as a percentage of the urinary glucose excretion (UGE) seen with reference compound A, which was run as a positive control in all experiments.

T3 sequence (P33261 whole entry): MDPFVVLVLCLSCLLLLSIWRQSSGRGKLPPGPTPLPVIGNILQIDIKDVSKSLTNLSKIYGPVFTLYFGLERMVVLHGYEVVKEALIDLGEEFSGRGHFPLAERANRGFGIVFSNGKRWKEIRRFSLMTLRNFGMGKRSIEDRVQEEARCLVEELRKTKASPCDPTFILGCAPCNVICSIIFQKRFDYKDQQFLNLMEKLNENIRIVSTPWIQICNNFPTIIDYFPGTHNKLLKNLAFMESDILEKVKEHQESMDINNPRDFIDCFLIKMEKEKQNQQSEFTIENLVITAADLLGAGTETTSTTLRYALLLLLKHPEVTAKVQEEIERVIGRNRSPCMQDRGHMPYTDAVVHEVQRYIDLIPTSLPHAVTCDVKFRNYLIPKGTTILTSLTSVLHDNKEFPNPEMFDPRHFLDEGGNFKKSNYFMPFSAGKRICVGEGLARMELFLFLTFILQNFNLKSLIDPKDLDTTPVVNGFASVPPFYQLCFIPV
T2 sequence (P08684 whole entry): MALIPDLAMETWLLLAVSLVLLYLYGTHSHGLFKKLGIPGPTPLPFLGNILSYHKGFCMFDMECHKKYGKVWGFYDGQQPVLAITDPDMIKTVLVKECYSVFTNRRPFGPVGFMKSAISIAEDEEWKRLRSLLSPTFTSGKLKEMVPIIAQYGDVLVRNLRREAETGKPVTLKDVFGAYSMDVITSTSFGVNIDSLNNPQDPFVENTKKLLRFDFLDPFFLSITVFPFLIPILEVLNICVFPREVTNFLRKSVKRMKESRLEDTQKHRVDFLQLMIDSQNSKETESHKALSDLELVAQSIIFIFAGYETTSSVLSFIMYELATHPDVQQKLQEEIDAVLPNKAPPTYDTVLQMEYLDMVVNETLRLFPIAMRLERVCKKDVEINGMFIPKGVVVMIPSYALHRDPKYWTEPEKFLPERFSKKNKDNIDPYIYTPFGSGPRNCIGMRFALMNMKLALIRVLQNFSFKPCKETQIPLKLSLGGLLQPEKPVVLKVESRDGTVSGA

As for `COc1ccc(Cc2cc([C@@H]3O[C@H](CO)[C@@H](O)[C@H](O)[C@H]3O)ccc2Cl)cc1` [Ref B, (2S,3R,4R,5S,6R)-2-(4-chloro-3-(4-methoxybenzyl)phenyl)-6-(hydroxymethyl)tetrahydro-2H-pyran-3,4,5-triol, reference compound], the IC50 in data set [1] was > 1000 µM; in data set [2], 250 µM; in data set [4], 195 µM; in data set [5], 0.54 µM. Also, the “Distribution of Metabolites in Urine (% of total), Peak 1 (Parent)” value in data set [3] stood at 72%. Further, in data set [6] (0-8 h), the “Urinary Glucose Excretion in Dogs, 0-8 h (mean ± SD)” value was 3322 ± 464 mg. In addition, the “Urinary Glucose Excretion in Dogs, 0-24 h (mean ± SD)” value in data set [6] worked out at 16726 ± 1507 mg. The “Urinary Glucose Excretion in Dogs, 8-24 h (mean ± SD)” value in data set [6] is listed as 13404 ± 1888 mg. Moreover, in data set [7] (0-4 h), the “Urinary Glucose Excretion in Rats, 0-4 h, % relative to Ref A” value worked out at 122%. Besides, the “Urinary Glucose Excretion in Rats, 0-24 h, % relative to Ref A” value in data set [7] is 78%. Moreover, in data set [7] (4-24 h), the “Urinary Glucose Excretion in Rats, 4-24 h, % relative to Ref A” value was found to be 74%. In addition, the “Urinary Glucose Excretion in Rats, 0-4 h (mean ± SD)” value in data set [7] (glucose 2 g/kg 1 h post dose, 0-4 h) is recorded as 233 ± 35 mg. Further, the “Urinary Glucose Excretion in Rats, 0-24 h (mean ± SD)” value in data set [7] (glucose 2 g/kg 1 h post dose) stood at 1889 ± 361 mg. Besides, the “Urinary Glucose Excretion in Rats, 4-24 h (mean ± SD)” value in data set [7] (glucose 2 g/kg 1 h post dose, 4-24 h) came to 1657 ± 354 mg.
`[2H]C([2H])([2H])Oc1ccc(C([2H])([2H])c2cc([C@@H]3O[C@H](CO)[C@@H](O)[C@H](O)[C@H]3O)ccc2Cl)cc1` [compound 19, (2S,3R,4R,5S,6R)-2-(4-chloro-3-((4-(methoxy-d3)phenyl)methyl-d2)phenyl)-6-(hydroxymethyl)tetrahydro-2H-pyran-3,4,5-triol]: the half-maximal inhibitory concentration (IC50) was > 1000 µM in data set [1], > 1000 µM in data set [2], 355 µM in data set [4] and 0.82 µM in data set [5]. The “Distribution of Metabolites in Urine (% of total), Peak 1 (Parent)” value in data set [3] amounted to 87%. Also, in data set [6], the “Urinary Glucose Excretion in Dogs, 0-24 h (mean ± SD)” value is reported as 15928 ± 321 mg. Moreover, in data set [6], the “Urinary Glucose Excretion in Dogs, 8-24 h (mean ± SD)” value came to 12516 ± 485 mg. Further, the “Urinary Glucose Excretion in Rats, 0-24 h, % relative to Ref A” value in data set [7] amounted to 83%. Further, the “Urinary Glucose Excretion in Rats, 0-24 h (mean ± SD)” value in data set [7] (glucose 2 g/kg 1 h post dose) is given as 2096 ± 332 mg.

Source of the values: US9061060B2, “Deuterated benzylbenzene derivatives and methods of use” (Theracos Inc., priority 2008, dated 2015).
